# According to paper PMC5218480 (PLoS ONE, 2017):
# System: MV-4-11 cells
# Assay: Gene expression microarray analysis (Affymetrix PrimeView) and GSEA
# Format: cell-based, human
# Design: RFU PODN (11730768_x_at) / Fold change /veh PODN (11730768_x_at) / RFU LINC00158 (11744669_a_at) / Fold change /veh LINC00158 (11744669_a_at) / RFU DUSP10 (11751237_a_at) / Fold change /veh DUSP10 (11751237_a_at) / RFU ID3 (11757404_x_at) / Fold change /veh ID3 (11757404_x_at) / RFU PLEKHG5 (11737974_s_at) / Fold change /veh PLEKHG5 (11737974_s_at) / RFU LRRC4B (11730491_at) / Fold change /veh LRRC4B (11730491_at) / RFU GIMAP4 (11747438_a_at) / Fold change /veh GIMAP4 (11747438_a_at) / RFU KRT8 (11758183_x_at) / Fold change /veh KRT8 (11758183_x_at) / RFU CNN1 (11734310_a_at) / Fold change /veh CNN1 (11734310_a_at) / RFU VPS37D (11726825_at) / Fold change /veh VPS37D (11726825_at) / RFU C10orf10 (11716522_x_at) / Fold change /veh C10orf10 (11716522_x_at) / RFU KIR2DL2 /// KIR2DL4 /// KIR2DL5A /// KIR2DL5B /// KIR2DS1 /// KIR2DS2 /// KIR2DS3 /// KIR2DS4 /// KIR3DL3 /// KIR3DL3 /// KIR3DS1 (11738374_at) / Fold change /veh KIR2DL2 /// KIR2DL4 /// KIR2DL5A /// KIR2DL5B /// KIR2DS1 /// KIR2DS2 /// KIR2DS3 /// KIR2DS4 /// KIR3DL3 /// KIR3DL3 /// KIR3DS1 (11738374_at) / RFU C1QL1 (11718748_at) / Fold change /veh C1QL1 (11718748_at) / RFU TMPRSS4 (11747572_a_at) / Fold change /veh TMPRSS4 (11747572_a_at) / RFU HAMP (11756126_x_at) / Fold change /veh HAMP (11756126_x_at) / RFU RNFT2 (11725882_a_at) / Fold change /veh RNFT2 (11725882_a_at) / RFU NR4A2 (11747474_a_at) / Fold change /veh NR4A2 (11747474_a_at) / RFU ABCC12 (11746883_a_at) / Fold change /veh ABCC12 (11746883_a_at) / RFU TMEM136 (11760407_x_at) / Fold change /veh TMEM136 (11760407_x_at) / RFU CLDN22 /// WWC2 (11732394_at) / Fold change /veh CLDN22 /// WWC2 (11732394_at) / RFU HLA-DPB1 (11760878_x_at) / Fold change /veh HLA-DPB1 (11760878_x_at) / RFU SPINT1 (11716480_a_at) / Fold change /veh SPINT1 (11716480_a_at) / RFU GAP43 (11754022_s_at) / Fold change /veh GAP43 (11754022_s_at) / RFU A4GNT (11735810_at) / Fold change /veh A4GNT (11735810_at) / RFU PRB3 (11715151_x_at) / Fold change /veh PRB3 (11715151_x_at) / RFU TUBB4B (11761932_at) / Fold change /veh TUBB4B (11761932_at) / RFU CAPN14 (11732068_a_at) / Fold change /veh CAPN14 (11732068_a_at) / RFU TMCC2 (11721928_a_at) / Fold change /veh TMCC2 (11721928_a_at) / RFU IRGQ (11745062_a_at) / Fold change /veh IRGQ (11745062_a_at) / RFU FAM174B (11720279_a_at) / Fold change /veh FAM174B (11720279_a_at) / RFU TMPRSS4 (11748680_a_at) / Fold change /veh TMPRSS4 (11748680_a_at) / RFU FAM212B (11763350_a_at) / Fold change /veh FAM212B (11763350_a_at) / RFU PLEKHG5 (11743358_a_at) / Fold change /veh PLEKHG5 (11743358_a_at) / RFU ZSCAN30 (11745921_a_at) / Fold change /veh ZSCAN30 (11745921_a_at) / RFU CMKLR1 (11741424_a_at) / Fold change /veh CMKLR1 (11741424_a_at) / RFU LOC101060620 /// MAPK8IP1 (11723275_at) / Fold change /veh LOC101060620 /// MAPK8IP1 (11723275_at) / RFU SPTSSB (11747773_x_at) / Fold change /veh SPTSSB (11747773_x_at) / RFU PRSS12 (11739890_at) / Fold change /veh PRSS12 (11739890_at) / RFU BIN1 (11741810_x_at) / Fold change /veh BIN1 (11741810_x_at) / RFU WNT11 (11732464_a_at) / Fold change /veh WNT11 (11732464_a_at) / RFU C10orf10 (11716521_a_at) / Fold change /veh C10orf10 (11716521_a_at) / RFU C5orf56 (11738089_at) / Fold change /veh C5orf56 (11738089_at) / RFU CYB561 (11721691_x_at) / Fold change /veh CYB561 (11721691_x_at) / RFU ANKRD19P (11752326_a_at) / Fold change /veh ANKRD19P (11752326_a_at) / RFU OR2T12 /// OR2T33 /// OR2T8 (11738714_s_at) / Fold change /veh OR2T12 /// OR2T33 /// OR2T8 (11738714_s_at) / RFU VCAN (11748164_a_at) / Fold change /veh VCAN (11748164_a_at) / RFU JSRP1 (11732532_at) / Fold change /veh JSRP1 (11732532_at) / RFU KRTAP10-11 (11738290_x_at) / Fold change /veh KRTAP10-11 (11738290_x_at) / RFU MYO3A (11730013_a_at) / Fold change /veh MYO3A (11730013_a_at) / RFU EBF3 (11725865_a_at) / Fold change /veh EBF3 (11725865_a_at) / RFU CAMK2N1 (11719241_x_at) / Fold change /veh CAMK2N1 (11719241_x_at) / RFU C5orf56 (11738088_a_at) / Fold change /veh C5orf56 (11738088_a_at) / RFU OLFML3 (11715873_a_at) / Fold change /veh OLFML3 (11715873_a_at) / RFU LOC100653217 /// NTM (11731650_a_at) / Fold change /veh LOC100653217 /// NTM (11731650_a_at) / RFU MAPK11 (11762145_a_at) / Fold change /veh MAPK11 (11762145_a_at) / RFU FIZ1 (11724087_x_at) / Fold change /veh FIZ1 (11724087_x_at) / RFU OASL (11726364_x_at) / Fold change /veh OASL (11726364_x_at) / RFU SOX15 (11748057_x_at) / Fold change /veh SOX15 (11748057_x_at) / RFU CD79A (11719716_a_at) / Fold change /veh CD79A (11719716_a_at) / RFU HIST1H1D (11736915_at) / Fold change /veh HIST1H1D (11736915_at) / RFU CASKIN2 (11723855_a_at) / Fold change /veh CASKIN2 (11723855_a_at) / RFU LOC730098 (11760151_x_at) / Fold change /veh LOC730098 (11760151_x_at) / RFU OR4N2 (11742367_at) / Fold change /veh OR4N2 (11742367_at) / RFU PRRT2 (11749266_a_at) / Fold change /veh PRRT2 (11749266_a_at) / RFU SNX32 (11753110_a_at) / Fold change /veh SNX32 (11753110_a_at) / RFU CDHR5 (11726645_a_at) / Fold change /veh CDHR5 (11726645_a_at) / RFU RCAN1 (11760418_a_at) / Fold change /veh RCAN1 (11760418_a_at) / RFU FAM167A (11723789_a_at) / Fold change /veh FAM167A (11723789_a_at) / RFU FAM26E (11764081_at) / Fold change /veh FAM26E (11764081_at) / RFU ISYNA1 (11749810_s_at) / Fold change /veh ISYNA1 (11749810_s_at) / RFU ACY1 (11761880_at) / Fold change /veh ACY1 (11761880_at) / RFU 11764098_at / Fold change /veh 11764098_at / RFU SAMD14 (11745864_x_at) / Fold change /veh SAMD14 (11745864_x_at) / RFU NPB (11741838_a_at) / Fold change /veh NPB (11741838_a_at) / RFU TMPRSS6 (11731388_a_at) / Fold change /veh TMPRSS6 (11731388_a_at) / RFU KRTAP10-2 (11738614_at) / Fold change /veh KRTAP10-2 (11738614_at) / RFU ARHGAP8 /// PRR5-ARHGAP8 (11727945_x_at) / Fold change /veh ARHGAP8 /// PRR5-ARHGAP8 (11727945_x_at) / RFU KRTAP5-7 /// NADSYN1 (11734609_at) / Fold change /veh KRTAP5-7 /// NADSYN1 (11734609_at) / RFU RASL12 (11751679_a_at) / Fold change /veh RASL12 (11751679_a_at) / RFU CDKN2B (11736163_a_at) / Fold change /veh CDKN2B (11736163_a_at) / RFU PRF1 (11729649_at) / Fold change /veh PRF1 (11729649_at) / RFU, ZNF638 /// ZNF638-IT1 / Fold change vs veh, ZNF638 /// ZNF638-IT1 / RFU, PANK3 / Fold change vs veh, PANK3 / RFU, SH3YL1 / Fold change vs veh, SH3YL1 / RFU, ZEB2 / Fold change vs veh, ZEB2 / RFU, NRIP1 / Fold change vs veh, NRIP1 / RFU, PTTG1IP / Fold change vs veh, PTTG1IP / RFU, CAPN2 / Fold change vs veh, CAPN2 / RFU, MED14 / Fold change vs veh, MED14 / RFU, SNORA58 / Fold change vs veh, SNORA58 / RFU, C1orf63 / Fold change vs veh, C1orf63 / RFU, LRRFIP1 / Fold change vs veh, LRRFIP1 / RFU, NDUFAF7 / Fold change vs veh, NDUFAF7 / RFU, SLC12A2 / Fold change vs veh, SLC12A2 / RFU, IBTK / Fold change vs veh, IBTK / RFU, ESF1 / Fold change vs veh, ESF1 / Fold change vs veh, TMEM50B / RFU, TAOK1 / Fold change vs veh, TAOK1 / RFU, ACBD3 / Fold change vs veh, ACBD3 / RFU, TMA16 / Fold change vs veh, TMA16 / RFU, RWDD3 / Fold change vs veh, RWDD3 / RFU, BCAT1 / Fold change vs veh, BCAT1 / RFU, EDEM3 / Fold change vs veh, EDEM3 / RFU, TMEM33 / Fold change vs veh, TMEM33 / RFU, WDR75 / Fold change vs veh, WDR75 / RFU, AHCTF1 / Fold change vs veh, AHCTF1 / RFU, TFRC / Fold change vs veh, TFRC / RFU, ZDHHC17 / Fold change vs veh, ZDHHC17 / RFU, NOM1 / Fold change vs veh, NOM1 / RFU, ARL8B / Fold change vs veh, ARL8B / RFU, ZBTB11 / Fold change vs veh, ZBTB11 / RFU, TAMM41 / Fold change vs veh, TAMM41 / RFU, KIAA1704 /// LOC100996395 / Fold change vs veh, KIAA1704 /// LOC100996395 / RFU, ING1 / Fold change vs veh, ING1 / RFU, TRMT61B / Fold change vs veh, TRMT61B / RFU, FUBP3 / Fold change vs veh, FUBP3 / RFU, TP53 / Fold change vs veh, TP53 / RFU, TNKS2 / Fold change vs veh, TNKS2 / RFU, ZFP14 / Fold change vs veh, ZFP14 / RFU, ACTR2 / Fold change vs veh, ACTR2 / RFU, PPP3R1 / Fold change vs veh, PPP3R1 / RFU, PIK3R1 / Fold change vs veh, PIK3R1 / RFU, HNRNPA1 / Fold change vs veh, HNRNPA1 / RFU, RNF170 / Fold change vs veh, RNF170 / RFU, ZNF28 / Fold change vs veh, ZNF28 / RFU, RNGTT / Fold change vs veh, RNGTT / RFU, OGT / Fold change vs veh, OGT / RFU, BRD1 / Fold change vs veh, BRD1 / RFU, MARS / Fold change vs veh, MARS / RFU, ZNF655 / Fold change vs veh, ZNF655 / RFU, FAHD1 / Fold change vs veh, FAHD1 / RFU, BDP1 / Fold change vs veh, BDP1 / RFU, LRRCC1 / Fold change vs veh, LRRCC1 / RFU, ARID1A / Fold change vs veh, ARID1A / RFU, ZNF146 / Fold change vs veh, ZNF146 / RFU, ZNF330 / Fold change vs veh, ZNF330 / RFU, GPN3 / Fold change vs veh, GPN3 / RFU, C9orf123 / Fold change vs veh, C9orf123 / RFU, N4BP2L2 / Fold change vs veh, N4BP2L2 / RFU, ARFIP1 / Fold change vs veh, ARFIP1 / RFU, FAM179B / Fold change vs veh, FAM179B / RFU, BCL10 / Fold change vs veh, BCL10 / RFU, UHRF1BP1L / Fold change vs veh, UHRF1BP1L / RFU, BET1 / Fold change vs veh, BET1 / RFU, CNOT2 / Fold change vs veh, CNOT2 / RFU, ZNF268 / Fold change vs veh, ZNF268 / Fold change vs veh, ZNF507 / RFU, DGCR2 / Fold change vs veh, DGCR2 / RFU, WDSUB1 / Fold change vs veh, WDSUB1 / Fold change vs veh, HSP90B1 /// MIR3652 / RFU, ADSS / Fold change vs veh, ADSS / RFU, GK / Fold change vs veh, GK / RFU, ZNF148 / Fold change vs veh, ZNF148 / RFU, TAF9 / Fold change vs veh, TAF9 / RFU, SLC1A5 / Fold change vs veh, SLC1A5 / RFU, SLMO2 / Fold change vs veh, SLMO2 / RFU, ABCC4 / Fold change vs veh, ABCC4 / RFU, LOC101060439 /// RAP1B / Fold change vs veh, LOC101060439 /// RAP1B / RFU, RFX7 / Fold change vs veh, RFX7 / RFU, GTPBP10 / Fold change vs veh, GTPBP10 / RFU, CNEP1R1 / Fold change vs veh, CNEP1R1 / RFU, BIVM-ERCC5 /// ERCC5 / Fold change vs veh, BIVM-ERCC5 /// ERCC5 / RFU, ILF3 / Fold change vs veh, ILF3 / RFU 11762660_at / Fold change /veh 11762660_at / RFU VCAN (11757783_s_at) / Fold change /veh VCAN (11757783_s_at) / RFU DDX43 (11728927_at) / Fold change /veh DDX43 (11728927_at) / RFU KRT8 (11758188_x_at) / Fold change /veh KRT8 (11758188_x_at) / RFU NKD1 (11759106_at) / Fold change /veh NKD1 (11759106_at) / RFU SRD5A1 (11742802_a_at) / Fold change /veh SRD5A1 (11742802_a_at) / RFU TPSAB1 /// TPSB2 (11721975_s_at) / Fold change /veh TPSAB1 /// TPSB2 (11721975_s_at) / RFU GSTM3 (11746129_a_at) / Fold change /veh GSTM3 (11746129_a_at) / RFU IL23R (11737362_x_at) / Fold change /veh IL23R (11737362_x_at) / RFU TMEM51 (11727254_a_at) / Fold change /veh TMEM51 (11727254_a_at) / RFU PIWIL2 (11732686_x_at) / Fold change /veh PIWIL2 (11732686_x_at) / RFU ORM1 (11744905_x_at) / Fold change /veh ORM1 (11744905_x_at) / RFU CCDC152 (11743942_at) / Fold change /veh CCDC152 (11743942_at) / RFU ECM1 (11717891_a_at) / Fold change /veh ECM1 (11717891_a_at) / RFU IL23R (11748794_a_at) / Fold change /veh IL23R (11748794_a_at) / RFU TNFAIP8L3 (11732012_x_at) / Fold change /veh TNFAIP8L3 (11732012_x_at) / RFU MBOAT4 (11741988_at) / Fold change /veh MBOAT4 (11741988_at) / RFU 11764193_at / Fold change /veh 11764193_at / RFU TMEM53 (11763286_at) / Fold change /veh TMEM53 (11763286_at) / RFU MAGEB2 (11727129_at) / Fold change /veh MAGEB2 (11727129_at) / RFU TMEM200A (11744735_a_at) / Fold change /veh TMEM200A (11744735_a_at) / RFU CCDC152 (11751479_a_at) / Fold change /veh CCDC152 (11751479_a_at) / RFU FAM211A (11726209_a_at) / Fold change /veh FAM211A (11726209_a_at) / RFU RGS16 (11746705_a_at) / Fold change /veh RGS16 (11746705_a_at) / RFU VCAN (11755009_s_at) / Fold change /veh VCAN (11755009_s_at) / RFU RHOB (11743442_s_at) / Fold change /veh RHOB (11743442_s_at) / RFU RGS16 (11720943_a_at) / Fold change /veh RGS16 (11720943_a_at) / RFU RGS16 (11720944_at) / Fold change /veh RGS16 (11720944_at) / RFU, VPS4B / Fold change vs veh, VPS4B / RFU, CREB1 / Fold change vs veh, CREB1 / RFU, DNAJC13 / Fold change vs veh, DNAJC13 / RFU, GNAQ / Fold change vs veh, GNAQ / RFU, CDK5R1 / Fold change vs veh, CDK5R1 / RFU, ZRANB3 / Fold change vs veh, ZRANB3 / RFU, CUL4A / Fold change vs veh, CUL4A / RFU, CCNY / Fold change vs veh, CCNY / RFU, UFL1 / Fold change vs veh, UFL1 / RFU, COG3 / Fold change vs veh, COG3 / RFU, DIAPH2 / Fold change vs veh, DIAPH2 / RFU, SKA2 / Fold change vs veh, SKA2 / RFU, AFF3 / Fold change vs veh, AFF3 / RFU, LMF1 / Fold change vs veh, LMF1 / RFU, IPO11 / Fold change vs veh, IPO11 / RFU, DFFB / Fold change vs veh, DFFB / RFU, FOXP1 / Fold change vs veh, FOXP1 / RFU, CARD8 / Fold change vs veh, CARD8 / RFU, STRN3 / Fold change vs veh, STRN3 / RFU, ADK / Fold change vs veh, ADK / RFU, RASSF2 / Fold change vs veh, RASSF2 / RFU, WIPF1 / Fold change vs veh, WIPF1 / RFU, LARP1B / Fold change vs veh, LARP1B / RFU, RASA1 / Fold change vs veh, RASA1 / RFU, RB1 / Fold change vs veh, RB1 / RFU, PPFIA1 / Fold change vs veh, PPFIA1 / RFU, MAT2A / Fold change vs veh, MAT2A / RFU, CCT5 / Fold change vs veh, CCT5 / RFU, WDR92 / Fold change vs veh, WDR92 / RFU, CUX1 / Fold change vs veh, CUX1 / RFU, TTC7A / Fold change vs veh, TTC7A / RFU, TMEM135 / Fold change vs veh, TMEM135 / RFU, DEPTOR / Fold change vs veh, DEPTOR / RFU, CPM / Fold change vs veh, CPM / RFU, DNAJB6 / Fold change vs veh, DNAJB6 / RFU, CACNA2D3 / Fold change vs veh, CACNA2D3 / RFU, DTX4 / Fold change vs veh, DTX4 / RFU, TFCP2 / Fold change vs veh, TFCP2 / RFU, GMCL1 /// GMCL1P1 / Fold change vs veh, GMCL1 /// GMCL1P1 / RFU, AEBP2 / Fold change vs veh, AEBP2 / RFU, SNHG1 /// SNORD22 /// SNORD25 /// SNORD26 /// SNORD27 /// SNORD28 /// SNORD29 /// SNORD31 / Fold change vs veh, SNHG1 /// SNORD22 /// SNORD25 /// SNORD26 /// SNORD27 /// SNORD28 /// SNORD29 /// SNORD31 / Fold change (Aza/veh), C12orf56 (ProbeSet 11735607_a_at) / Fold change (ACY-1035/veh), C12orf56 (ProbeSet 11735607_a_at) / Fold change (Aza/veh), FGFR1OP (ProbeSet 11751329_s_at) / Fold change (ACY-1035/veh), FGFR1OP (ProbeSet 11751329_s_at) / Fold change (Aza/veh), VPS36 (ProbeSet 11739960_a_at) / Fold change (ACY-1035/veh), VPS36 (ProbeSet 11739960_a_at) / RFU SYPL1 (11715823_x_at) / Fold change /veh SYPL1 (11715823_x_at) / RFU IGFBP7 (11715501_s_at) / Fold change /veh IGFBP7 (11715501_s_at) / RFU REEP3 (11722064_at) / Fold change /veh REEP3 (11722064_at) / RFU IGLL1 (11728026_x_at) / Fold change /veh IGLL1 (11728026_x_at): dose or concentration left out as unconfirmed
# Conditions: ProbeSet 11743510_at; LIST D
smiles,measurement,value
Nc1ncn([C@@H]2O[C@H](CO)[C@@H](O)[C@H]2O)c(=O)n1 [azacitidine],"RFU, UFL1",314.03 RFU
